Source: the NIST ThermoML archive (doi:10.1021/je4008298)

Experiment: mn = molality of the nth substance listed, in mol/kg
Details: for viscosity / mass density: 101.3 kPa, Liquid; for viscosity: Capillary tube (Ostwald / Ubbelohde) method; for surface tension liquid-gas: Pendant drop shape

NC(CO)CO [2-amino-1,3-propanediol] + O
Details | mass density, 293.2 K [kg/m3] | mass density, 300.2 K [kg/m3] | mass density, 307.2 K [kg/m3] | mass density, 313.2 K [kg/m3] | surface tension liquid-gas, 298.2 K [mN/m] | surface tension liquid-gas, 313.2 K [mN/m] | viscosity, 293.2 K [mPa·s] | viscosity, 300.2 K [mPa·s] | viscosity, 307.2 K [mPa·s] | viscosity, 313.2 K [mPa·s]
m1 = 0.953 | 1012.63 | 1010.28 | 1008.07 | 1005.49 | – | – | 1.244 | 1.056 | 0.896 | 0.8
m1 = 0.959 | – | – | – | – | 71.7 | 69.4 | – | – | – | –
m1 = 2.052 | 1026.97 | 1024.18 | 1021.61 | 1019.22 | – | – | 1.606 | 1.335 | 1.118 | 0.983
m1 = 2.151 | – | – | – | – | 71.3 | 69 | – | – | – | –
m1 = 3.459 | – | – | – | – | 70.8 | 68.6 | – | – | – | –
m1 = 3.464 | 1041.67 | 1038.8 | 1036.8 | 1033.49 | – | – | 2.157 | 1.769 | 1.458 | 1.275
m1 = 4.693 | 1052.77 | 1050.01 | 1047.38 | 1044.53 | – | – | 2.784 | 2.261 | 1.845 | 1.588
m1 = 4.745 | – | – | – | – | 70.4 | 68.3 | – | – | – | –
